Assay [1] concerns the target T1, pseudo-kinase domain (JH2) of human V617F mutant JAK2 (Homo sapiens, UniProt O60674, F794H/V617F/W659A/W777A).
T1 construct: pseudo-kinase domain (JH2, amino-acids 536-812 with 3 surface mutations W659A, W777A, F794H); His (C); purchased BPS Bioscience 79498; host or cells: baculovirus expression system
The assay can be described thus: JAK2 LanthaScreen JH2-V617F Binding Assay. The conditions noted are these: 50 nM Fluorescent JAK2-JH2 Tracer, 1 hour at 25° C. An outline of the steps: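 Biotinylated His-Avi-tagged JH2 domain (aa 536-812, V617F plus 3 surface mutations; 0.26 nM), baculovirus-expressed, incubated 1 hour at 25° C with compound, 50 nM fluorescent JH2 tracer and 0.25 nM streptavidin-Tb in pH 7.5 Tris buffer. Tracer displacement read by LanthaScreen TR-FRET; non-specific binding with 2 mM ATP; four-parameter IC50.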

Assay [2] addresses T2, pseudo-kinase domain (JH2) of human Wild Type JAK2 (Homo sapiens, UniProt O60674, F794H/W659A/W777A).
T2 construct: pseudo-kinase domain (JH2, amino-acids 536-812 with 3 surface mutations W659A, W777A, F794H); His (C); purchased BPS Bioscience 79463; host or cells: baculovirus expression system
The assay can be described thus: JAK2 LanthaScreen JH2-WT Binding Assay. Particulars: 50 nM Fluorescent JAK2-JH2 Tracer, 1 hour at 25° C. The method, boiled down:
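Biotinylated His-Avi-tagged JAK2 JH2 (aa 536-812, three surface mutations; 0.145 nM) competed with 50 nM fluorescent tracer, using 0.25 nM streptavidin-Tb, in pH 7.5 Tris buffer for 1 h at 25° C.; non-specific binding was set with 2 mM ATP. TR-FRET read; IC50 from four-parameter fit.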
(In general: TR-FRET usually uses a lanthanide donor and a delayed reading to cut background.)

The target of assay [3] is T3, catalytic domain (JH1) of human JAK2 (Homo sapiens, UniProt O60674).
T3 construct: catalytic domain (JH1, amino acids 826-1132) of human JAK2; FLAG (N); purchased Carna Biosciences 08-445-20N; host or cells: baculovirus expression system
T3 sequence (O60674 826-1132): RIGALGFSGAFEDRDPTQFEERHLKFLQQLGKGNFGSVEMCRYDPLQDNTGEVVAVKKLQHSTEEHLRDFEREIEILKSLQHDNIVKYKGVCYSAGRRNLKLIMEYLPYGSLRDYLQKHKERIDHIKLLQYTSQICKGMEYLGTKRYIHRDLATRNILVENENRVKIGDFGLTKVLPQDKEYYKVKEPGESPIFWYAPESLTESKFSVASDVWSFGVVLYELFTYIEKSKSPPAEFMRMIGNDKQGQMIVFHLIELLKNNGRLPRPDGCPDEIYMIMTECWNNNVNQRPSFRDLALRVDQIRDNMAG
The assay can be described thus: JAK2 LanthaScreen JH1 Binding Assay. Particulars: 50 nM Fluorescent JAK2-JH1 Tracer, 2 hours at 25° C. An outline of the steps:
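TR-FRET tracer-displacement binding using N-terminal FLAG-tagged, biotinylated JH1 (aa 826-1132, baculovirus-expressed) at 1.5 nM, with 50 nM fluorescent tracer and 0.5 nM streptavidin-Tb. Buffer was 50 mM Tris pH 7.5, 10 mM MgCl2, 5 mM DTT, 2 h at 25° C. Non-specific binding used 2 mM ATP; IC50 came from four-parameter fits.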

T2 sequence (O60674 536-812 W659A/W777A/F794H): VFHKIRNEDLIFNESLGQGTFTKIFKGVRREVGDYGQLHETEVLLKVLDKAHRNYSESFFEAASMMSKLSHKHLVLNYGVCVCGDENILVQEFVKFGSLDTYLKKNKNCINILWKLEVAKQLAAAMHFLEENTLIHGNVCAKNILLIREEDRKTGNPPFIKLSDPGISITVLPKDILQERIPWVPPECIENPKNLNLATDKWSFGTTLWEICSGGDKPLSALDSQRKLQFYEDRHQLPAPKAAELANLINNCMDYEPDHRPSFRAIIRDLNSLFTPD
T1 sequence (O60674 536-812 V617F/W659A/W777A/F794H): as the sequence (O60674 536-812 W659A/W777A/F794H) above, with V82F counted along it

With `CN(C)S(=O)(=O)c1ccc(-c2[nH]c3nc(N)[nH]c(=O)c3c2C2=CCCC2)cc1` [Example 47, 4-(2-Amino-5-(cyclopent-1-en-1-yl)-4-oxo-4,7-dihydro-3H-pyrrolo[2,3-d]pyrimidin-6-yl)-N,N-dimethylbenzenesulfonamide], the half-inhibitory concentration (IC50) in assay [1], in assay [2] and in assay [3] was 0.1 to 0.5 µM each time.

Regarding `CNC(=O)c1ccc(-c2c(-c3ccc(S(=O)(=O)N(C)C)cc3)[nH]c3nc(N)[nH]c(=O)c23)cc1` [Example 11, 4-(2-Amino-6-(4-(N,N-dimethyl-sulfamoyl)phenyl)-4-oxo-4,7-dihydro-3H-pyrrolo[2,3-d]pyrimidin-5-yl)-N-methylbenzamide], the values for the half-maximal inhibitory concentration (IC50) in assay [1], in assay [2] and in assay [3] were 0.1 to 0.5 µM, 0.1 to 0.5 µM and 1 to 2.5 µM, respectively.

As to `COc1ccc(OC)c(-c2c(-c3ccc(S(=O)(=O)N(C)C)cc3)[nH]c3nc(N)[nH]c(=O)c23)c1` [Example 25, 4-(2-Amino-5-(2,5-dimethoxyphenyl)-4-oxo-4,7-dihydro-3H-pyrrolo[2,3-d]pyrimidin-6-yl)-N,N-dimethylbenzene sulfonamide], the values for the IC50 in assay [1], in assay [2] and in assay [3] were 0.5 to 1 µM, 0.5 to 1 µM and over 2.5 µM, respectively.

With `CN(C)S(=O)(=O)c1ccc(-c2[nH]c3nc(N)[nH]c(=O)c3c2-c2cccc(C#N)c2)cc1` [Example 17, 4-(2-Amino-5-(3-cyanophenyl)-4-oxo-4,7-dihydro-3H-pyrrolo [2,3-d]pyrimidin-6-yl)-N,N-dimethyl-benzene sulfonamide], the results for the half-inhibitory concentration (IC50) in assay [1], in assay [2] and in assay [3] were 0.5 to 1 µM, 0.5 to 1 µM and 0.1 to 0.5 µM, respectively.

For `Nc1nc2[nH]c(-c3ccccc3)c(-c3ccccc3OC(F)F)c2c(=O)[nH]1` [Example 1, 2-Amino-5-(2-(difluoromethoxy)phenyl)-6-phenyl-3,7-dihydro-4H-pyrrolo[2,3-d]pyrimidin-4-one], the IC50 in assay [1], in assay [2] and in assay [3] was over 2.5 µM in each case.

For the compound `CN(C)S(=O)(=O)c1ccc(-c2[nH]c3nc(N)[nH]c(=O)c3c2-c2cnn(Cc3ccc(C#N)cc3)c2)cc1` [Example 31, 4-(2-Amino-5-(1-(4-cyanobenzyl)-1H-pyrazol-4-yl)-4-oxo-4,7-dihydro-3H-pyrrolo[2,3-d]pyrimidin-6-yl)-N,N-dimethylbenzene sulfonamide], the IC50 in assay [1], in assay [2] and in assay [3] was 1 to 2.5 µM in each case.

For the compound `CN(C)S(=O)(=O)c1ccc(-c2[nH]c3nc(N)[nH]c(=O)c3c2-c2ccccc2OC(F)F)cc1` [Example 19, 4-(2-Amino-5-(2-(difluoromethoxy)phenyl)-4-oxo-4,7-dihydro-3H-pyrrolo[2,3-d]pyrimidin-6-yl)-N,N-dimethylbenzene sulfonamide], the IC50 (usually the concentration that gives 50% inhibition) in assay [1] was 1 to 2.5 µM; in assay [2], over 2.5 µM; in assay [3], over 2.5 µM.

For the compound `CN(C)S(=O)(=O)c1ccc(-c2[nH]c3nc(N)[nH]c(=O)c3c2-c2cccc(CN)c2)cc1` [Example 45, 4-(2-Amino-5-(3-(aminomethyl)phenyl)-4-oxo-4,7-dihydro-3H-pyrrolo[2,3-d]pyrimidin-6-yl)-N,N-dimethylbenzenesulfonamide], the concentration for half-maximal inhibition (IC50) was over 2.5 µM in assay [1], 1 to 2.5 µM in assay [2] and over 2.5 µM in assay [3].

As to `COc1cc2ccccc2cc1-c1c(-c2ccc(S(=O)(=O)N(C)C)cc2)[nH]c2nc(N)[nH]c(=O)c12` [Example 33, 4-(2-Amino-5-(3-methoxynaphthalen-2-yl)-4-oxo-4,7-dihydro-3H-pyrrolo[2,3-d]pyrimidin-6-yl)-N,N-dimethylbenzene sulfonamide], the results for the IC50 in assay [1], in assay [2] and in assay [3] were 0.5 to 1 µM, 0.5 to 1 µM and over 2.5 µM, respectively.

In the case of `COc1ccc(C)cc1-c1c(-c2ccc(S(=O)(=O)N(C)C)cc2)[nH]c2nc(N)[nH]c(=O)c12` [Example 66, 4-(2-Amino-5-(2-methoxy-5-methylphenyl)-4-oxo-4,7-dihydro-3H-pyrrolo[2,3-d]pyrimidin-6-yl)-N,N-dimethylbenzenesulfonamide], the IC50 in assay [1] was 0.1 to 0.5 µM; in assay [2], 0.1 to 0.5 µM; in assay [3], over 2.5 µM.

Take `COc1ccccc1-c1c(-c2cccc(S(C)(=O)=O)c2)[nH]c2nc(N)[nH]c(=O)c12` [Example 63, 2-Amino-5-(2-methoxyphenyl)-6-(3-(methylsulfonyl)phenyl)-3,7-dihydro-4H-pyrrolo[2,3-d] pyrimidin-4-one]: the IC50 in assay [1], in assay [2] and in assay [3] was over 2.5 µM each time.

Regarding `CN(C)S(=O)(=O)c1ccc(-c2[nH]c3nc(N)[nH]c(=O)c3c2-c2ccccc2C#N)cc1` [Example 18, 4-(2-Amino-5-(2-cyano-phenyl)-4-oxo-4,7-dihydro-3H-pyrrolo[2,3-d]pyrimidin-6-yl)-N,N-dimethylbenzene sulfonamide], the half-maximal inhibitory concentration (IC50) in assay [1], in assay [2] and in assay [3] was over 2.5 µM each time.

For `CN(C)S(=O)(=O)c1ccc(-c2[nH]c3nc(N)[nH]c(=O)c3c2-c2ccnn2C)cc1` [Example 46, 4-(2-Amino-5-(1-methyl-1H-pyrazol-5-yl)-4-oxo-4,7-dihydro-3H-pyrrolo[2,3-d]pyrimidin-6-yl)-N,N-dimethylbenzenesulfonamide], the IC50 in assay [1], in assay [2] and in assay [3] was over 2.5 µM throughout.

On to `Nc1nc2[nH]c(-c3ccccc3)c(-c3ccccc3C(F)(F)F)c2c(=O)[nH]1` [Example 59, 2-Amino-6-phenyl-5-(2-(trifluoro-methyl)phenyl)-3,7-dihydro-4H-pyrrolo[2,3-d] pyrimidin-4-one], for which the IC50 in assay [1], in assay [2] and in assay [3] was over 2.5 µM each time.

Regarding `COc1ncccc1-c1c(-c2ccc(S(=O)(=O)N(C)C)cc2)[nH]c2nc(N)[nH]c(=O)c12` [Example 28, 4-(2-Amino-5-(2-methoxy-pyridin-3-yl)-4-oxo-4,7-dihydro-3H-pyrrolo[2,3-d]pyrimidin-6-yl)-N,N-dimethylbenzene sulfonamide], the IC50 in assay [1] is 1 to 2.5 µM; in assay [2] it was 1 to 2.5 µM; in assay [3], over 2.5 µM.

Take `CN(C)S(=O)(=O)c1ccc(-c2[nH]c3nc(N)[nH]c(=O)c3c2-c2ccc(S(C)(=O)=O)cc2)cc1` [Example 13, 4-(2-Amino-5-(4-(methylsulfonyl)phenyl)-4-oxo-4,7-dihydro-3H-pyrrolo[2,3-d]pyrimidin-6-yl)-N,N-dimethylbenzene sulfonamide]: the IC50 in assay [1] is 0.1 to 0.5 µM; in assay [2] it was 0.1 to 0.5 µM; in assay [3], 1 to 2.5 µM.

Regarding `COc1cccc(-c2c(-c3ccc(S(=O)(=O)N(C)C)cc3)[nH]c3nc(N)[nH]c(=O)c23)c1OC` [Example 43, 4-(2-Amino-5-(2,3-dimethoxyphenyl)-4-oxo-4,7-dihydro-3H-pyrrolo[2,3-d]pyrimidin-6-yl)-N,N-dimethylbenzene sulfonamide], the half-inhibitory concentration (IC50) in assay [1] is 1 to 2.5 µM; in assay [2] it was 1 to 2.5 µM; in assay [3] it was over 2.5 µM.

With `CCOc1ccccc1-c1c(-c2ccc(S(=O)(=O)N(C)C)cc2)[nH]c2nc(N)[nH]c(=O)c12` [Example 70, 4-(2-Amino-5-(2-ethoxyphenyl)-4-oxo-4,7-dihydro-3H-pyrrolo[2,3-d]pyrimidin-6-yl)-N,N-dimethylbenzenesulfonamide], the IC50 in assay [1] was 1 to 2.5 µM; in assay [2], 1 to 2.5 µM; in assay [3], over 2.5 µM.

As for `COc1ccc(C(F)(F)F)cc1-c1c(-c2ccc(S(=O)(=O)N(C)C)cc2)[nH]c2nc(N)[nH]c(=O)c12` [Example 24, 4-(2-Amino-5-(2-methoxy-5-(trifluoromethyl)phenyl)-4-oxo-4,7-dihydro-3H-pyrrolo[2,3-d]pyrimidin-6-yl)-N,N-dimethylbenzene sulfonamide], the figures for the 50% inhibitory concentration (IC50) in assay [1], in assay [2] and in assay [3] were 1 to 2.5 µM, 1 to 2.5 µM and over 2.5 µM, respectively.

`COc1ccccc1-c1c(-c2ccc(S(C)(=O)=O)cc2)[nH]c2nc(N)[nH]c(=O)c12` [Example 62, 2-Amino-5-(2-methoxyphenyl)-6-(4-(methylsulfonyl)phenyl)-3,7-dihydro-4H-pyrrolo [2,3-d]pyrimidin-4-one]: the concentration for half-maximal inhibition (IC50) was 0.5 to 1 µM in assay [1], 1 to 2.5 µM in assay [2] and over 2.5 µM in assay [3].

Consider `CN(C)S(=O)(=O)c1ccc(-c2[nH]c3nc(N)[nH]c(=O)c3c2-c2cnn(Cc3cccc(C(=O)O)c3)c2)cc1` [Example 51, 3-((4-(2-amino-6-(4-(N,N-dimethylsulfamoyl)phenyl)-4-oxo-4,7-dihydro-3H-pyrrolo[2,3-d]pyrimidin-5-yl)-1H-pyrazol-1-yl)methyl)benzoic acid], for which the IC50 lay within 0.5 to 1 µM in assay [1], 0.5 to 1 µM in assay [2] and 1 to 2.5 µM in assay [3].
